Assay: Fisher esterification conditions: formation of t-butyl ester of bendamustine in TBA
Format: physicochemical
Settings: heated in 60° C. TBA with HCl for 20 hours
Procedure: Experiments were performed using traditional Fisher esterification reaction conditions required for the formation of t-butyl ester of bendamustine. Bendamustine was heated in 60° C. TBA with HCl for 20 hours.

SMILES: Cl.Cn1c(CCCC(=O)O)nc2cc(N(CCCl)CCCl)ccc21 [bendamustine, 4-{5-[Bis(2-chloroethyl)amino]-1-methyl-2-benzimidazolyl}butyric acid]
- formation of t-butyl ester: No reaction was observed
